Experimental data published in the supplement of paper PMC10307832.

Key:
Assay in all cases: relative viability (nuclei count vs DMSO), 5 days (fraction); higher = more cells survive
A-427 = tested on: A-427
Outline: (§1)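 Lung cancer cell lines in 1536-well plates got either a single drug or a fixed anchor-drug dose together with five library-drug doses (not always all listed) in √10 steps, by pin tool, on the day after seeding. Nuclei were counted after 5 days, and relative viability is the treated-to-vehicle ratio of nuclei counts. Values are medians of duplicate plates.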

COR-L 105 = tested on: COR-L 105
Outline: as §1

ChaGo-K-1 = tested on: ChaGo-K-1
Outline: as §1

EKVX = tested on: EKVX
Outline: as §1

EMC-BAC-2 = tested on: EMC-BAC-2
Outline: as §1

H3255 = tested on: H3255
Outline: as §1

LK-2 = tested on: LK-2
Outline: as §1

LOU-NH91 = tested on: LOU-NH91
Outline: as §1

NCI-H1563 = tested on: NCI-H1563
Outline: as §1

NCI-H1666 = tested on: NCI-H1666
Outline: as §1

NCI-H1734 = tested on: NCI-H1734
Outline: as §1

NCI-H1755 = tested on: NCI-H1755
Outline: as §1

`Clc1ccc(Nc2nnc(Cc3ccncc3)c3ccccc23)cc1` [Vatalanib] + CCNC(=O)c1noc(-c2cc(C(C)C)c(O)cc2O)c1-c1ccc(CN2CCOCC2)cc1 [Luminespib] (partner 0.01 µM) gave a relative viability (A-427; first compound 0.04 µM) of 0.861, a relative viability (A-427; first compound 0.1265 µM) of 0.909 and a relative viability (A-427; first compound 0.4 µM) of 1.03. It also gave a relative viability (A-427; first compound 1.265 µM) of 0.927, a relative viability (A-427; first compound 4 µM) of 0.948 and a relative viability (COR-L 105; first compound 0.04 µM) of 0.814. The relative viability (COR-L 105; first compound 0.1265 µM) was 0.7, the relative viability (COR-L 105; first compound 0.4 µM) was 0.877 and the relative viability (COR-L 105; first compound 1.265 µM) was 0.843. It also gave a relative viability (COR-L 105; first compound 4 µM) of 0.74, a relative viability (ChaGo-K-1; first compound 0.04 µM) of 0.636 and a relative viability (ChaGo-K-1; first compound 0.1265 µM) of 0.608. The relative viability (ChaGo-K-1; first compound 0.4 µM) was 0.671, the relative viability (ChaGo-K-1; first compound 1.265 µM) was 0.471 and the relative viability (ChaGo-K-1; first compound 4 µM) was 0.45. It also gave a relative viability (EKVX; first compound 0.04 µM) of 0.904, a relative viability (EKVX; first compound 0.1265 µM) of 0.805 and a relative viability (EKVX; first compound 0.4 µM) of 0.876. For the same molecule, the relative viability (EKVX; first compound 4 µM) was 0.852, the relative viability (EMC-BAC-2; first compound 0.04 µM) was 1.16 and the relative viability (EMC-BAC-2; first compound 0.1265 µM) was 1.13. For the same molecule, the relative viability (EMC-BAC-2; first compound 0.4 µM) was 1.34, the relative viability (EMC-BAC-2; first compound 1.265 µM) was 1.09 and the relative viability (EMC-BAC-2; first compound 4 µM) was 1.15. It also gave a relative viability (H3255; first compound 0.04 µM) of 0.881, a relative viability (H3255; first compound 0.1265 µM) of 0.91 and a relative viability (H3255; first compound 0.4 µM) of 0.82. It also gave a relative viability (H3255; first compound 1.265 µM) of 0.743, a relative viability (H3255; first compound 4 µM) of 0.838 and a relative viability (LK-2; first compound 0.04 µM) of 0.185. The relative viability (LK-2; first compound 0.1265 µM) was 0.217, the relative viability (LK-2; first compound 0.4 µM) was 0.188 and the relative viability (LK-2; first compound 1.265 µM) was 0.202. The relative viability (LK-2; first compound 4 µM) was 0.182, the relative viability (LOU-NH91; first compound 0.04 µM) was 0.371 and the relative viability (LOU-NH91; first compound 0.1265 µM) was 0.331. It also gave a relative viability (LOU-NH91; first compound 1.265 µM) of 0.368, a relative viability (LOU-NH91; first compound 4 µM) of 0.315 and a relative viability (NCI-H1563; first compound 0.04 µM) of 0.493. It also gave a relative viability (NCI-H1563; first compound 0.1265 µM) of 0.539, a relative viability (NCI-H1563; first compound 0.4 µM) of 0.519 and a relative viability (NCI-H1563; first compound 1.265 µM) of 0.495. It also gave a relative viability (NCI-H1563; first compound 4 µM) of 0.56, a relative viability (NCI-H1666; first compound 0.04 µM) of 0.986 and a relative viability (NCI-H1666; first compound 0.1265 µM) of 0.991. For the same molecule, the relative viability (NCI-H1666; first compound 0.4 µM) was 0.996, the relative viability (NCI-H1666; first compound 1.265 µM) was 1.01 and the relative viability (NCI-H1666; first compound 4 µM) was 1.04. For the same molecule, the relative viability (NCI-H1734; first compound 0.04 µM) was 0.224, the relative viability (NCI-H1734; first compound 0.1265 µM) was 0.153 and the relative viability (NCI-H1734; first compound 0.4 µM) was 0.193. The relative viability (NCI-H1734; first compound 1.265 µM) was 0.167, the relative viability (NCI-H1734; first compound 4 µM) was 0.192 and the relative viability (NCI-H1755; first compound 0.04 µM) was 0.419. The relative viability (NCI-H1755; first compound 0.1265 µM) was 0.439 and the relative viability (NCI-H1755; first compound 0.4 µM) was 0.556.
